Reference: patent US8192962B2, “Processes for detecting toxic substances” (Daikin Industries, Ltd., priority 2001, dated 2012)

System: Stress protein genes
Assay: DNA chip mRNA expression in yeast, stress protein genes (Table 6)
Format: cell-based, Saccharomyces cerevisiae S288C
In short: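 Chemical exposure: 2 h, log-phase S. cerevisiae S288C, YPD, 25° C., dose set to inhibit growth without death. Profiling: mRNA labeled by reverse transcription with Cy3- or Cy5-dUTP, hybridized to whole-genome array. Output: fluorescence ratio against untreated culture.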

Measured: The level of expressed mRNA in the presence of chemical substance/The level of expressed mRNA in the absence of chemical substance

[Cl][Pb][Cl] [(4), PbCl2]
8.6: yeast gene YCR021C
0.8: yeast gene YDR098C | yeast gene YJL128C | yeast gene YJR090C | yeast gene YLL024C | yeast gene YOR027W
1.0: yeast gene YER042W | yeast gene YGL073W | yeast gene YNL241C | yeast gene YNR076W | yeast gene YPL140C
0.9: yeast gene YAL005C | yeast gene YBR067C | yeast gene YER125W | yeast gene YFL016C | yeast gene YHR057C | yeast gene YKL164C | yeast gene YLR109W | yeast gene YMR173W | yeast gene YMR186W | yeast gene YPL240C
1.7: yeast gene YBR054W | yeast gene YCL035C | yeast gene YLL026W
1.2: yeast gene YBR126C | yeast gene YFL020C | yeast gene YKR053C | yeast gene YLL039C
5.1: yeast gene YEL039C | yeast gene YPL223C
1.4: yeast gene YBL093C | yeast gene YDR258C | yeast gene YDR293C | yeast gene YDR436W | yeast gene YOL161C
2.3: yeast gene YIR037W
1.9: yeast gene YAL015C | yeast gene YBR044C | yeast gene YBR169C | yeast gene YHR104W | yeast gene YKL163W | yeast gene YML070W
1.1: yeast gene YEL030W | yeast gene YGL181W | yeast gene YJL159W | yeast gene YMR021C | yeast gene YNL064C | yeast gene YOR008C | yeast gene YPL106C | yeast gene YPL194W
3.8: yeast gene YPR005C
0.5: yeast gene YHL028W
0.7: yeast gene YKL210W | yeast gene YOR009W
11.0: yeast gene YFL014W
6.2: yeast gene YLR006C
2.1: yeast gene YDR077W | yeast gene YER103W
2.6: yeast gene YDR513W | yeast gene YLL060C
1.8: yeast gene YCR083W | yeast gene YDR155C | yeast gene YER057C
0.6: yeast gene YIL011W | yeast gene YOL064C | yeast gene YOR010C
10.5: yeast gene YBR072W
1.6: yeast gene YBL075C | yeast gene YDR519W | yeast gene YJL165C | yeast gene YLR259C
1.3: yeast gene YHL046C | yeast gene YIL033C | yeast gene YML007W | yeast gene YPL059W | yeast gene YPR026W
2.0: yeast gene YGL115W | yeast gene YIR038C | yeast gene YNL160W
2.2: yeast gene YKL161C
2.9: yeast gene YHR030C | yeast gene YOR208W
2.4: yeast gene YGR088W
1.5: yeast gene YDL022W | yeast gene YDL025C | yeast gene YDR033W | yeast gene YFR052W | yeast gene YJL158C
